Assay results: patent US20110190365A1, “Insecticidal 4-phenyl-1H-pyrazoles” (Bayer Crop Science AG, priority 2008, published 2011)

Assay: log P by HPLC on a reversed-phase column (C18), EEC Directive 79/831 Annex V.A8
Assay type: physicochemical
Procedure: The stated log P values were determined in accordance with EEC Directive 79/831 Annex V.A8 by HPLC (High Performance Liquid Chromatography) using a reversed-phase column (C18).

[1] = HCOOH, Table 4, compounds of formula I-A-Q4
[2] = HPLC, reversed-phase C18, mobile phase with formic acid

Structure (SMILES)	log P (HCOOH) (HCOOH)	further results
COc1ccnc(CNC(=O)c2ccc(-n3nc(C(F)(F)F)c(-c4cc(Cl)cc(Cl)c4)c3N)cc2C)c1 [I-A-Q2-052]	I-A-Q2-052: log P (HCOOH): 2.34	–
Cc1cc(-n2nc(C(F)(F)F)c(-c3cc(Cl)cc(Cl)c3)c2N)ccc1C(=O)NC(C)Cn1cccn1 (centres unmarked) [I-A-Q2-243]	I-A-Q2-243: log P (HCOOH): 3.78	–
Nc1c(-c2ccc(Cl)cc2)c(C(F)(F)F)nn1-c1ccc(C(=O)NCC(F)F)cc1 [I-A-Q2-164]	I-A-Q2-164: log P (HCOOH): 3.27	–
Nc1c(-c2cc(Cl)cc(Cl)c2)c(C(F)(F)F)nn1-c1ccc(F)c(F)c1 [I-A-Q4-109]	–	log P (HCOOH) [1]: I-A-Q4-109: log P (HCOOH): 4.77
N#Cc1cc(-n2nc(C(F)(F)Oc3cccc(Cl)c3)c(-c3cc(Cl)cc(C(F)(F)F)c3)c2N)ccc1-n1cncn1 [I-A-Q1-072]	–	log P (HCOOH) [2]: I-A-Q1-072: log P (HCOOH): 4.82
CC(NC(=O)c1ccc(-n2nc(C(F)(F)F)c(-c3cccc(Cl)c3)c2N)cc1)c1ccccc1 (centres unmarked) [I-A-Q2-089]	I-A-Q2-089: log P (HCOOH): 3.89	–
Cc1cc(-n2nc(C(F)(F)F)c(-c3cc(Cl)cc(Cl)c3)c2N)ccc1C(=O)NCc1ncccc1C [I-A-Q2-029]	I-A-Q2-029: log P (HCOOH): 3.24	–
Nc1c(-c2cc(Cl)cc(Cl)c2)c(C(F)(F)F)nn1-c1ccc(C(=O)NCc2cccnc2)cc1 [I-A-Q2-143]	I-A-Q2-143: log P (HCOOH): 2.59	–
FC(F)(F)c1nn(-c2ccc(I)cc2)c(Br)c1-c1cc(Cl)cc(Cl)c1 [I-A-Q4-017]	–	log P (HCOOH) [1]: I-A-Q4-017: log P (HCOOH): 6.71
COc1cnc(CNC(=O)c2ccc(-n3nc(C(F)(F)F)c(-c4cc(Cl)cc(Cl)c4)c3N)cc2C)cc1OC [I-A-Q2-037]	I-A-Q2-037: log P (HCOOH): 2.42	–
N#Cc1cc(-n2nc(C(F)(F)F)c(-c3cccc(F)c3)c2N)ccc1-n1cncn1 [I-A-Q1-042]	–	log P (HCOOH) [2]: I-A-Q1-042: log P (HCOOH): 2.84
CCCc1nn(-c2ccc(Cl)cn2)c(N)c1-c1ccc(Cl)cc1 [I-A-Q4-025]	–	log P (HCOOH) [1]: I-A-Q4-025: log P (HCOOH): 5.51
Nc1c(-c2ccc(Br)cc2)c(C(F)(F)F)nn1-c1ccc(C(=O)NCC(F)(F)F)cc1 [I-A-Q2-189]	I-A-Q2-189: log P (HCOOH): 3.53	–
Cc1cc(-n2nc(C)c(-c3c(F)cccc3Cl)c2N)ccc1C(=O)NCC(F)(F)C(F)F [I-A-Q2-334]	I-A-Q2-334: log P (HCOOH): 2.59	–
Cc1nn(-c2ccc(-n3cncn3)c(C#N)c2)c(N)c1-c1ccc(Cl)cc1 [I-A-Q1-029]	–	log P (HCOOH) [2]: I-A-Q1-029: log P (HCOOH): 2.65
Cc1cc(-n2nc(C(F)(F)F)c(-c3cc(Cl)cc(Cl)c3)c2N)ccc1C(=O)NCCc1ncc(C(F)(F)F)cc1Cl [I-A-Q2-232]	I-A-Q2-232: log P (HCOOH): 4.95	–
CC(C)CC(NC(=O)c1ccc(-n2nc(C(F)(F)F)c(-c3cc(Cl)cc(Cl)c3)c2N)cc1)C(F)(F)F (centres unmarked) [I-A-Q2-070]	I-A-Q2-070: log P (HCOOH): 5.25	–
N#Cc1cc(-n2nc(C(F)F)c(-c3ccc(Cl)cc3)c2N)ccc1-n1cncn1 [I-A-Q1-030]	–	log P (HCOOH) [2]: I-A-Q1-030: log P (HCOOH): 2.92
Nc1c(-c2cc(F)cc(Cl)c2)c(C(F)(F)F)nn1-c1ccc(Cl)cn1 [I-A-Q4-040]	–	log P (HCOOH) [1]: I-A-Q4-040: log P (HCOOH): 5.29

Structure (SMILES)	log P (HCOOH) (HCOOH)	further results
Nc1c(-c2cc(Cl)cc(Cl)c2)c(C(F)(F)F)nn1-c1ccc(C(=O)NC2CCC2)cc1 [I-A-Q2-141]	I-A-Q2-141: log P (HCOOH): 4.21	–
CC(NC(=O)c1ccc(-n2nc(C(F)(F)F)c(-c3cccc(Br)c3)c2N)cc1)C(F)(F)F (centres unmarked) [I-A-Q2-172]	I-A-Q2-172: log P (HCOOH): 3.73	–
Cc1cc(-n2nc(C(F)(F)F)c(-c3cc(Cl)cc(Cl)c3)c2N)ccc1C(=O)NC(c1cccc(C(F)(F)F)c1)C(F)(F)F (centres unmarked) [I-A-Q2-257]	I-A-Q2-257: log P (HCOOH): 5.22	–
CCOC(=O)c1ccc(-n2nc(C(F)(F)F)c(-c3cc(Cl)cc(Cl)c3)c2N)cc1 [I-A-Q4-086]	–	log P (HCOOH) [1]: I-A-Q4-086: log P (HCOOH): 4.93
Nc1c(-c2ccccc2Cl)c(C(F)(F)F)nn1-c1ccc(C(=O)NCc2ncccn2)cc1 [I-A-Q2-080]	I-A-Q2-080: log P (HCOOH): 2.38	–
Cc1nn(-c2ccc(Cl)cn2)c(N)c1-c1c(F)cccc1Cl [I-A-Q4-031]	–	log P (HCOOH) [1]: I-A-Q4-031: log P (HCOOH): 3.78
Cc1nn(-c2ccc(-n3cncn3)c(C#N)c2)c(N)c1-c1cccc(Cl)c1 [I-A-Q1-053]	–	log P (HCOOH) [2]: I-A-Q1-053: log P (HCOOH): 2.66
CC(C)(C)NC(=O)c1ccc(-n2nc(C(F)(F)F)c(-c3cc(Cl)cc(Cl)c3)c2N)cc1 [I-A-Q2-146]	I-A-Q2-146: log P (HCOOH): 4.54	–
Cc1cc(-n2nc(C)c(-c3ccc(F)cc3Cl)c2N)ccc1C(=O)NCc1ccccn1 [I-A-Q2-368]	I-A-Q2-368: log P (HCOOH): 1.79	–
CCOC(=O)N1CCC(NC(=O)c2ccc(-n3nc(C(F)(F)F)c(-c4cc(Cl)cc(Cl)c4)c3N)cc2C)CC1 [I-A-Q2-204]	I-A-Q2-204: log P (HCOOH): 4.22	–
Nc1c(-c2cc(F)c(F)c(F)c2)c(C(F)(F)F)nn1-c1ccc(Cl)cn1 [I-A-Q4-053]	–	log P (HCOOH) [1]: I-A-Q4-053: log P (HCOOH): 4.89
Nc1c(-c2ccc(Cl)c(F)c2)c(C(F)(F)F)nn1-c1ccc(C(=O)NCc2ccccn2)cc1 [I-A-Q2-171]	I-A-Q2-171: log P (HCOOH): 2.53	–
Nc1c(-c2ccc(Cl)c(Cl)c2)c(C(F)(F)F)nn1-c1ccc(C(=O)NC2CC2)cc1 [I-A-Q2-157]	I-A-Q2-157: log P (HCOOH): 3.51	–
Cc1cc(-n2nc(C(F)(F)F)c(-c3cc(Cl)cc(Cl)c3)c2N)ccc1C(=O)NCC[S+](C)[O-] (centres unmarked) [I-A-Q2-273]	I-A-Q2-273: log P (HCOOH): 2.98	–
Nc1c(-c2ccc(F)c(Cl)c2)c(C(F)(F)F)nn1-c1ccc(C(=O)O)cc1 [I-A-Q4-094]	–	log P (HCOOH) [1]: I-A-Q4-094: log P (HCOOH): 3.31
Cc1cc(-n2nc(C(F)(F)F)c(-c3cc(Cl)cc(Cl)c3)c2N)ccc1C(=O)NCc1ncccn1 [I-A-Q2-018]	I-A-Q2-018: log P (HCOOH): 3.56	–
Cc1cc(-n2nc(C(F)(F)C(F)(F)F)c(-c3cc(C(F)(F)F)cc(C(F)(F)F)c3)c2N)ccc1C(=O)NCc1ccccn1 [I-A-Q2-383]	I-A-Q2-383: log P (HCOOH): 3.94	–
Cc1cc(-n2nc(C(F)F)c(-c3ccc(Cl)cc3)c2N)ccc1C(=O)NCC(F)(F)C(F)F [I-A-Q2-320]	I-A-Q2-320: log P (HCOOH): 3.23	–
COC(=O)c1ccc(-n2nc(C(F)(F)F)c(Cl)c2N)cc1C [XI-A-081]	XI-A-081: log P (HCOOH): 2.76	–

Structure (SMILES)	log P (HCOOH) (HCOOH)	further results
Cc1cc(-n2nc(C(F)(F)F)c(-c3cc(Cl)c4c(c3)OCO4)c2N)ccc1C(=O)NCC(F)(F)C(F)F [I-A-Q2-293]	I-A-Q2-293: log P (HCOOH): 3.11	–
Nc1c(-c2cc(F)cc(Cl)c2)c(C(F)(F)F)nn1-c1ccc(C(=O)NCC(F)(F)F)cc1 [I-A-Q2-086]	I-A-Q2-086: log P (HCOOH): 3.68	–
Nc1c(-c2ccc(F)c(F)c2)c(C(F)(F)F)nn1-c1ccc(C(=O)NCc2ccccn2)cc1 [I-A-Q2-177]	I-A-Q2-177: log P (HCOOH): 2.27	–
Nc1c(-c2cc(Cl)cc(Cl)c2)c(C(F)(F)F)nn1-c1ccc(-n2cncn2)c(C(F)(F)F)c1 [I-A-Q1-068]	–	log P (HCOOH) [2]: I-A-Q1-068: log P (HCOOH): 4.32
CNC(=O)c1ccc(-n2nc(C(F)(F)F)c(-c3cc(Cl)cc(Cl)c3)c2Br)nc1 [I-A-Q2-109]	I-A-Q2-109: log P (HCOOH): 4.35	–
Cc1cc(-n2nc(CC(C)C)c(-c3ccc(Cl)cc3)c2N)ccc1C(=O)NCC(F)(F)C(F)F [I-A-Q2-342]	I-A-Q2-342: log P (HCOOH): 3.85	–
CCCNC(=O)c1ccc(-n2nc(C(F)(F)F)c(-c3cc(Cl)cc(Cl)c3)c2N)cc1C [I-A-Q2-202]	I-A-Q2-202: log P (HCOOH): 4.22	–
Cc1cc(-n2nc(C(F)(F)F)c(-c3cc(Cl)cc(Cl)c3)c2N)ccc1C(=O)NC(Cc1ccccn1)C(F)(F)F (centres unmarked) [I-A-Q2-049]	I-A-Q2-049: log P (HCOOH): 4.28	–
Cc1cc(-n2nc(C(F)(F)F)c(-c3cc(Cl)cc(Cl)c3)c2N)ccc1C(=O)NC(C)c1ccc(C(F)(F)F)cn1 (centres unmarked) [I-A-Q2-240]	I-A-Q2-240: log P (HCOOH): 4.70	–
Nc1c(-c2ccc(Br)cc2)c(C(F)(F)F)nn1-c1ccc(C(=O)NC2CC2)cc1 [I-A-Q2-190]	I-A-Q2-190: log P (HCOOH): 3.15	–
Cc1cc(-n2nc(C(F)(F)F)c(Br)c2N)ccc1C(=O)NCC(F)(F)C(F)F [XI-A-092]	XI-A-092: log P (HCOOH): 3.03	–
Cc1cc(-n2nc(C(F)(F)F)c(-c3cc(Cl)cc(Cl)c3)c2N)ccc1C(=O)N(C)CC(F)(F)F [I-A-Q2-236]	I-A-Q2-236: log P (HCOOH): 4.51	–
Cc1cc(-n2nc(C(F)F)c(-c3ccc(F)cc3F)c2N)ccc1C(=O)NCC(F)(F)C(F)F [I-A-Q2-319]	I-A-Q2-319: log P (HCOOH): 2.80	–
CC(C)(CC(F)(F)F)NC(=O)c1ccc(-n2nc(C(F)(F)F)c(-c3cc(Cl)cc(Cl)c3)c2N)cc1 [I-A-Q2-069]	I-A-Q2-069: log P (HCOOH): 4.83	–
Cc1cc(-n2nc(C(F)(F)F)c(-c3cc(Cl)cc(Cl)c3)c2N)ccc1C(=O)NCc1cccc(N2CCOCC2)n1 [I-A-Q2-280]	I-A-Q2-280: log P (HCOOH): 3.96	–
O=C(NCC(F)(F)C(F)F)c1ccc(-n2cc(-c3cc(Cl)cc(Cl)c3)c(C(F)(F)F)n2)c2ccccc12 [I-B-Q2-021]	–	log P (HCOOH) (HCOOH, Table 6, compounds of formula I-B-Q2): I-B-Q2-021: log P (HCOOH): 4.58
Nc1c(-c2ccc(Br)cc2)c(C(F)(F)F)nn1-c1ccc(C(=O)O)cc1 [I-A-Q4-098]	–	log P (HCOOH) [1]: I-A-Q4-098: log P (HCOOH): 3.35
Cc1cnc(CNC(=O)c2ccc(-n3nc(C(F)(F)F)c(-c4cc(Cl)cc(Cl)c4)c3N)cc2C)cn1 [I-A-Q2-265]	I-A-Q2-265: log P (HCOOH): 3.63	–
